Like-named read-outs stand apart in the source and are kept apart here.
Key:
Assay type in all cases: in vivo
[1] = tested on: ragweed (common ragweed, Ambrosia elatior); experiment: Test A greenhouse herbicide test, pre- and postemergence; settings: for pest or weed control at 125 g/ha / pest or weed control at 500 g/ha: Ambrosia artemisiifolia, 240 h
How it was run: (§1)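 Seeds in loam–sand blend received a preemergence directed soil spray; plants at 2–10 cm, one- to two-leaf stage, received postemergence sprays. Compounds in a non-phytotoxic solvent with surfactant. After about 10 d in a greenhouse, injury rated visually versus untreated controls on a 0–100 scale (100 = complete control).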

[2] = tested on: foxtail, giant (giant foxtail, Setaria faberii); experiment: as above; settings: for pest or weed control at 125 g/ha / pest or weed control at 500 g/ha: Setaria faberi, 240 h
How it was run: as §1

[3] = tested on: kochia (Kochia scoparia); experiment: as above; settings: for pest or weed control at 125 g/ha / pest or weed control at 500 g/ha: Bassia scoparia, 240 h
How it was run: as §1

[4] = tested on: barnyardgrass (Echinochloa crus-galli); experiment: as above; settings: for pest or weed control at 125 g/ha / pest or weed control at 500 g/ha: Echinochloa crus-galli, 240 h
How it was run: as §1

[5] = tested on: corn (Zea mays); experiment: as above; settings: Postemergence
How it was run: as §1

[6] = tested on: sedge, umbrella (small-flower umbrella sedge, Cyperus difformis); experiment: Test B flooded paddy test; settings: 250 g ai/ha, Flood, visual rating on scale of 0 to 100 where 0 is no effect and 100 is complete control, 13 to 15 d after treatment
How it was run: (§2)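 Plants grown to the 2-leaf stage. At treatment, pots were flooded to 3 cm above the soil, compound was applied directly to the paddy water, and that depth was held throughout. After 13 to 15 d in the greenhouse, response was rated visually against controls on a 0 (no effect) to 100 (complete control) scale.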

[7] = tested on: rice (Oryza sativa); experiment: Test B flooded paddy test; settings: 250 g ai/ha, Flood, visual rating on scale of 0 to 100 where 0 is no effect and 100 is complete control, 13 to 15 d after treatment
How it was run: as §2

[8] = tested on: ducksalad (Heteranthera limosa); experiment: Test B flooded paddy test; settings: 250 g ai/ha, Flood, visual rating on scale of 0 to 100 where 0 is no effect and 100 is complete control, 13 to 15 d after treatment
How it was run: as §2

[9] = tested on: barnyardgrass (Echinochloa crus-galli); experiment: Test B flooded paddy test; settings: 250 g ai/ha, Flood, visual rating on scale of 0 to 100 where 0 is no effect and 100 is complete control, 13 to 15 d after treatment
How it was run: as §2

[10] = Postemergence, 125 g ai/ha, 0 to 100 scale where 0 is no effect and 100 is complete control
[11] = Postemergence, 500 g ai/ha, visual rating after approx. 10 d, 0 to 100 scale (0 no effect, 100 complete control)
[12] = Preemergence, 125 g ai/ha, 0 to 100 scale where 0 is no effect and 100 is complete control
[13] = Preemergence, 500 g ai/ha, 0 to 100 scale where 0 is no effect and 100 is complete control
[14] = 125 g ai/ha, 0 to 100 scale where 0 is no effect and 100 is complete control
[15] = 500 g ai/ha, visual rating after approx. 10 d, 0 to 100 scale (0 no effect, 100 complete control)
[16] = Postemergence, 125 g ai/ha, 0 to 100 scale, 0 no effect, 100 complete control
[17] = Preemergence, 125 g ai/ha, visual injury rating, 0 to 100 scale (0 no effect, 100 complete control), approx. 10 d

Cc1cc(C)c2oc(C)c(-c3c(OC(=O)C(C)(C)C)c(C)nn(C)c3=O)c2c1 [Compound 18, 1,6-dihydro-1,3-dimethyl-6-oxo-5-(2,5,7-trimethyl-3-benzofuranyl)-4-pyridazinyl 2,2-dimethylpropanoate]
pest or weed control at 125 g/ha ([1]; post-emergence, Postemergence, 125 g ai/ha, visual rating after approx. 10 d, 0 to 100 scale (0 no effect, 100 complete control), read-out: Plant response rating, Ragweed): 0%
pest or weed control at 500 g/ha ([1]; post-emergence, Postemergence, 500 g ai/ha, 0 to 100 scale, 0 is no effect, 100 is complete control, read-out: Ragweed plant response rating): 0%
pest or weed control at 125 g/ha ([1]; pre-emergence, Preemergence, 125 g ai/ha, 0 to 100 scale where 0 is no effect and 100 is complete control, read-out: Ragweed plant response rating): 0%
pest or weed control at 500 g/ha ([1]; pre-emergence, Preemergence, 500 g ai/ha, 0 to 100 scale, 0 no effect, 100 complete control, read-out: Plant response rating, Ragweed): 0%
pest or weed control at 125 g/ha ([2]; post-emergence, Postemergence, 125 g ai/ha, visual rating after approx. 10 d, 0 to 100 scale (0 no effect, 100 complete control), read-out: Plant response rating, Foxtail, Giant): 0%
pest or weed control at 500 g/ha ([2]; post-emergence, Postemergence, 500 g ai/ha, 0 to 100 scale, 0 is no effect, 100 is complete control, read-out: Foxtail, Giant plant response rating): 20%
pest or weed control at 125 g/ha ([2]; pre-emergence, Preemergence, 125 g ai/ha, 0 to 100 scale where 0 is no effect and 100 is complete control, read-out: Foxtail, Giant plant response rating): 0%
pest or weed control at 500 g/ha ([2]; pre-emergence, Preemergence, 500 g ai/ha, 0 to 100 scale, 0 no effect, 100 complete control, read-out: Plant response rating, Foxtail, Giant): 0%
pest or weed control at 125 g/ha ([3]; post-emergence, Postemergence, 125 g ai/ha, visual rating after approx. 10 d, 0 to 100 scale (0 no effect, 100 complete control), read-out: Plant response rating, Kochia): 0%
pest or weed control at 500 g/ha ([3]; post-emergence, Postemergence, 500 g ai/ha, 0 to 100 scale, 0 is no effect, 100 is complete control, read-out: Kochia plant response rating): 0%
pest or weed control at 125 g/ha ([3]; pre-emergence, Preemergence, 125 g ai/ha, 0 to 100 scale where 0 is no effect and 100 is complete control, read-out: Kochia plant response rating): 0%
pest or weed control at 500 g/ha ([3]; pre-emergence, Preemergence, 500 g ai/ha, 0 to 100 scale, 0 no effect, 100 complete control, read-out: Plant response rating, Kochia): 0%
pest or weed control at 125 g/ha ([4]; post-emergence, Postemergence, 125 g ai/ha, visual rating after approx. 10 d, 0 to 100 scale (0 no effect, 100 complete control), read-out: Plant response rating, Barnyardgrass): 0%
pest or weed control at 500 g/ha ([4]; post-emergence, Postemergence, 500 g ai/ha, 0 to 100 scale, 0 is no effect, 100 is complete control, read-out: Barnyardgrass plant response rating): 40%
pest or weed control at 125 g/ha ([4]; pre-emergence, Preemergence, 125 g ai/ha, 0 to 100 scale where 0 is no effect and 100 is complete control, read-out: Barnyardgrass plant response rating): 0%
pest or weed control at 500 g/ha ([4]; pre-emergence, Preemergence, 500 g ai/ha, 0 to 100 scale, 0 no effect, 100 complete control, read-out: Plant response rating, Barnyardgrass): 0%
Corn plant response rating (crop injury, 0 = no effect, 100 = complete kill) at 125 g/ha ([5]; Zea mays, post-emergence, 240 h, 125 g ai/ha, visual rating after approx. 10 d, 0 to 100 scale (0 no effect, 100 complete control)): 0%
plant injury at 500 g/ha ([5]; Zea mays, post-emergence, 240 h, 500 g ai/ha, 0 to 100 scale, 0 is no effect, 100 is complete control, read-out: Corn plant response rating): 20%
pest or weed control at 250 g/ha ([6]; Cyperus difformis, 360 h, read-out: Plant response rating, Sedge, Umbrella): 0%
plant injury at 250 g/ha ([7]; Oryza sativa, 360 h, read-out: Plant response rating, Rice): 0%
pest or weed control at 250 g/ha ([8]; Heteranthera limosa, 360 h, read-out: Plant response rating, Ducksalad): 30%
pest or weed control at 250 g/ha ([9]; Echinochloa crus-galli, 360 h, read-out: Plant response rating, Barnyardgrass): 0%

CC(=O)Oc1c(Cl)nn(C)c(=O)c1-c1c(C)sc2ccc(Cl)cc12 [Compound 116]
Plant response rating, Ragweed [1, 10]: 70
Plant response rating, Ragweed [1, 11]: 100
Ragweed plant response rating [1, 12]: 90
Plant response rating, Ragweed [1, 13]: 90
Plant response rating, Foxtail, Giant [2, 10]: 70
Plant response rating, Foxtail, Giant [2, 11]: 100
Foxtail, Giant plant response rating [2, 12]: 80
Plant response rating, Foxtail, Giant [2, 13]: 100
Plant response rating, Kochia [3, 10]: 30
Plant response rating, Kochia [3, 11]: 60
Kochia plant response rating [3, 12]: 30
Plant response rating, Kochia [3, 13]: 100
Plant response rating, Barnyardgrass [4, 10]: 20
Plant response rating, Barnyardgrass [4, 11]: 90
Barnyardgrass plant response rating [4, 12]: 70
Plant response rating, Barnyardgrass [4, 13]: 100
Plant response rating, Corn [5, 14]: 0
Plant response rating, Corn [5, 15]: 30
Plant response rating, Sedge, Umbrella [6]: 70
Plant response rating, Rice [7]: 0
Plant response rating, Ducksalad [8]: 50
Plant response rating, Barnyardgrass [9]: 0

CCC(=O)Oc1c(OC)nn(C)c(=O)c1-c1c(C)sc2ccc(Cl)cc12 [Compound 131]
Plant response rating, Ragweed [1, 10]: 100
Plant response rating, Ragweed [1, 11]: 90
Ragweed plant response rating [1, 12]: 40
Plant response rating, Ragweed [1, 13]: 60
Plant response rating, Foxtail, Giant [2, 10]: 50
Plant response rating, Foxtail, Giant [2, 11]: 80
Foxtail, Giant plant response rating [2, 12]: 80
Plant response rating, Foxtail, Giant [2, 13]: 90
Plant response rating, Kochia [3, 10]: 60
Plant response rating, Kochia [3, 11]: 80
Kochia plant response rating [3, 12]: 0
Plant response rating, Kochia [3, 13]: 20
Plant response rating, Barnyardgrass [4, 10]: 0
Plant response rating, Barnyardgrass [4, 11]: 20
Barnyardgrass plant response rating [4, 12]: 0
Plant response rating, Barnyardgrass [4, 13]: 40
Plant response rating, Corn [5, 14]: 0
Plant response rating, Corn [5, 15]: 10
Plant response rating, Sedge, Umbrella [6]: 0
Plant response rating, Rice [7]: 0
Plant response rating, Ducksalad [8]: 0
Plant response rating, Barnyardgrass [9]: 0

CC(=O)Oc1c(Cl)nn(C)c(=O)c1-c1c(C)sc2ccc(C(F)(F)F)cc12 [Compound 152]
Plant response rating, Ragweed [1, 16]: 70
Plant response rating, Ragweed [1, 11]: 90
Plant response rating, Ragweed [1, 17]: 80
Plant response rating, Ragweed [1, 13]: 100
Plant response rating, Foxtail, Giant [2, 16]: 30
Plant response rating, Foxtail, Giant [2, 11]: 50
Plant response rating, Foxtail, Giant [2, 17]: 40
Plant response rating, Foxtail, Giant [2, 13]: 90
Plant response rating, Kochia [3, 16]: 30
Plant response rating, Kochia [3, 11]: 40
Plant response rating, Kochia [3, 17]: 30
Plant response rating, Kochia [3, 13]: 70
Plant response rating, Barnyardgrass [4, 16]: 20
Plant response rating, Barnyardgrass [4, 11]: 40
Plant response rating, Barnyardgrass [4, 17]: 40
Plant response rating, Barnyardgrass [4, 13]: 40
Plant response rating, Corn ([5]; 125 g ai/ha, 0 to 100 scale, 0 no effect, 100 complete control): 0
Plant response rating, Corn [5, 15]: 0
Plant response rating, Sedge, Umbrella [6]: 0
Plant response rating, Rice [7]: 0
Plant response rating, Ducksalad [8]: 0
Plant response rating, Barnyardgrass [9]: 0
